Experimental data reported in patent US5028427A, “"Cephalosporin" compounds” (Beecham Group p.l.c., priority 1987, dated 1991).
≈ marks a conversion by molar mass, not a printed value.

Tests used:
Experiment in all cases: MIC by serial dilution in nutrient agar
Type in all cases: cell-based
Serratia marcescens US32 = conditions: Serratia marcescens US 32, nutrient agar (Oxoid), 10^4 colony forming units, overnight at 37° C.
Enterobacter cloacae P99 = tested on: Enterobacter cloacae P99
[1] = tested on: Staphylococcus aureus Oxford; conditions: nutrient agar (Oxoid), 10^4 colony forming units, overnight at 37° C.
[2] = tested on: Serratia marcescens HCN 3956; conditions: HCN3956, nutrient agar (Oxoid), 10^4 colony forming units, overnight at 37° C.
[3] = tested on: Pseudomonas aeruginosa NCTC 10662; conditions: NCTC10662, nutrient agar (Oxoid), 10^4 colony forming units, overnight at 37° C.

SMILES	MIC (Serratia marcescens US32)	MIC (Enterobacter cloacae P99)	MIC [1]	MIC [2]	MIC [3]
CCN1CCN(C(=O)NC(C(=O)NC2(NC=O)C(=O)N3C(C(=O)[O-])=C(C[n+]4ccccc4)CSC32)c2ccc(OC(C)=O)c(OC(C)=O)c2)C(=O)C1=O [Compound A, 7β-[D-2-(3,4-diacetoxyphenyl)-2-[(4-ethyl-2,3-dioxopiperazin-1-yl)carbonylamino]acetamido]-7α-formamido-3-(pyridinium)methyl-ceph-3-em-4-carboxylate]	0.5 µg/mL (≈ 0.665 µM)	8 µg/mL (≈ 10.6 µM)	16 µg/mL (≈ 21.3 µM)	16 µg/mL (≈ 21.3 µM)	2 µg/mL (≈ 2.66 µM)
CCN1CCN(C(=O)NC(C(=O)NC2(NC=O)C(=O)N3C(C(=O)[O-])=C(C[n+]4ccccc4)CSC32)c2ccc(O)c(O)c2)C(=O)C1=O [Example 1, 7β-[D-2-(3,4-Dihydroxyphenyl)-2-[(4-ethyl-2,3-dioxopiperazin-1-yl)carbonylamino]acetamido]-7α-formamido-3-(pyridinium)methyl-ceph-3-em-4-carboxylate]	0.12 µg/mL (≈ 0.18 µM)	2 µg/mL (≈ 3 µM)	8 µg/mL (≈ 12 µM)	2 µg/mL (≈ 3 µM)	0.5 µg/mL (≈ 0.749 µM)
